Experimental data from patent US20060099173A1, “Topical skin care composition” (priority 2003, published 2006).
Where two headings read alike, the source gives them in different places.

How the values were obtained:
[1] = description of the substance; cited from earlier work
[2] = in vivo
clinical = conditions: human, in vivo

## CC1(C)O[C@@H]2C[C@H]3[C@@H]4C[C@H](F)C5=CC(=O)C=C[C@]5(C)[C@@]4(F)[C@@H](O)C[C@]3(C)[C@]2(C(=O)CO)O1 [fluocinolone acetonide, (6,11,16)-6,9-difluoro-11,21-dihydroxy-16,17-[(1-methylethylidene)bis(oxy)]-pregna-1,-4-diene-3,20-dione]
[1]
  Stability of the drug substance (light, air, moisture): stable in light
[2]
  Percutaneous absorption of unchanged drug into the systemic circulation: minimal
  Post-dose plasma concentrations: undetectably low

## Oc1ccc(O)cc1 [hydroquinone, 1,4-benzenediol]
clinical
  Cmax: 25.6 to 86.5 ng/mL
[1]
  Stability of the drug substance (light, air, moisture): darken on exposure to air
[2]; human, 8 weeks
  Number of subjects with quantifiable plasma concentrations: 8
  Subjects with quantifiable plasma concentrations: 18%
[2]
  Percutaneous absorption of unchanged drug into the systemic circulation: minimal
  Post-dose plasma concentrations: undetectably low

## CC1=C(/C=C/C(C)=C/C=C/C(C)=C/C(=O)O)C(C)(C)CCC1 [tretinoin, (all-E)-3,7-dimethyl-9-(2,6,6-trimethyl-l-cyclohexen-1-yl)-2,4,6,8-nonatetraenoic acid]
clinical
  Cmax: 2.01 to 5.34 ng/mL
[1]
  Stability of the drug substance (light, air, moisture): highly reactive to light and moisture
[2]; human
  Cmax: 2.0 to 4.99 ng/mL
[2]
  Percutaneous absorption of unchanged drug into the systemic circulation: minimal
